Source: article PMC9230136 (Pharmaceutics, 2022)

What was measured:
Format in all cases: cell-based, human
HeLa cells [1] = assay: EdU cell proliferation assay; details: 25 or 50 nM; 24 h
Protocol: HeLa cells were seeded in a 6-well plate and, after a 24 h incubation, were treated with the desired compounds as indicated in the Biological Results and Discussion section. Cells were re-incubated for one day and then labeled with EdU (10 μM) for 3 h under cell culture conditions. Cells were harvested by centrifugation before proceeding with the fixation step using 3.7% formaldehyde. Next, permeabilization with 0.5% Triton X-100 was performed. The reaction cocktail was prepared and added to each well (100 μL/well) following the manufacturer’s instructions (EdU-Click 488, base click, Sigma-Aldrich. Milano Italy), and the plate was incubated at room temperature for 30 min in the dark. Cells were washed 2 times with phosphate-buffered saline (PBS) before reading samples with a Beckman Coulter Cytomics FC500 instrument (λex/λem = 496/516 nm).

HeLa cells [2] = assay: ROS production (H2DCFDA); details: 10, 50 or 100 nM; 24 h
Protocol: (§1) The mitochondrial potential was evaluated in HeLa cells by flow cytometry using the cell membrane permeable cationic dye 5,5′,6,6′-tetrachloro-1,1′,3,3′-tetraethyl-imidacarbocyanine iodide (JC-1) (Molecular Probes) as described previously. The production of ROS was measured in HeLa cells by flow cytometry using 2′,7′-dichlorodihydrofluorescein diacetate (H2DCFDA) (Molecular Probes) as described previously.

HeLa cells [3] = assay: Apoptosis by annexin-V-FITC/PI flow cytometry
Protocol: Surface exposure of phosphatidylserine on apoptotic cells was measured by flow cytometry with a Beckman Coulter Cytomics FC500 (Beckman Coulter Italia, Milano, Italy) by adding annexin-V conjugated to fluorescein isothiocyanate (FITC) to cells according to the manufacturer’s instructions (Annexin-V Fluos, Roche Diagnostic, Monza, Italy). Simultaneously, the cells were stained with PI. Excitation was set at 488 nm, and the emission filters were at 525 and 585 nm, respectively, for FITC and PI.

HeLa cells [4] = assay: Scratch-migration assay; details: 0.625–10 nM; 24 and 48 h
Protocol: HeLa cells were plated at 100,000 cells per well in a 6-well plate and incubated at 37 °C for 24 h. The day after seeding, cells were nearly confluent, so the sheet of cells was gently wounded through the horizontal and vertical axes using a micropipette tip. Cells were rinsed twice with PBS solution to remove cell debris; next, they were treated with different sublethal concentrations of compound 8q. At different time points, four images per experimental condition were captured using a stereomicroscope at 10X magnification. The distance between the two edges of the wound area was quantified with ImageJ software.

HeLa cells [5] = assay: Mitochondrial membrane potential (JC-1); details: Figure 8A representative plot; concentration not given
Protocol: as §1

Cc1cc(Nc2ccc(F)cc2)n2nc(NCCCc3ccccc3)nc2n1 [Compound 8q]
EdU incorporation / cell proliferation (HeLa cells [1]): effective in reducing HeLa cell proliferation
ROS production (HeLa cells [2]): significantly increased ROS production in a dose-dependent manner
concentration from which apoptosis was induced (HeLa cells [3]): 50 nM
cell migration / wound closure (HeLa cells [4]): significantly arrested the movement of cells, preventing wound closure
Monomers (%) (monomeric JC-1) (HeLa cells [5]): 64.4%
